Target: T1, hCRTH2 (Homo sapiens, UniProt Q9Y5Y4)
T1 construct: expressed in transfected cells; host or cells: HEK cell line expressing hCRTH2 (HEK-hCRTH2); membranes
T1 sequence (Q9Y5Y4 1-395): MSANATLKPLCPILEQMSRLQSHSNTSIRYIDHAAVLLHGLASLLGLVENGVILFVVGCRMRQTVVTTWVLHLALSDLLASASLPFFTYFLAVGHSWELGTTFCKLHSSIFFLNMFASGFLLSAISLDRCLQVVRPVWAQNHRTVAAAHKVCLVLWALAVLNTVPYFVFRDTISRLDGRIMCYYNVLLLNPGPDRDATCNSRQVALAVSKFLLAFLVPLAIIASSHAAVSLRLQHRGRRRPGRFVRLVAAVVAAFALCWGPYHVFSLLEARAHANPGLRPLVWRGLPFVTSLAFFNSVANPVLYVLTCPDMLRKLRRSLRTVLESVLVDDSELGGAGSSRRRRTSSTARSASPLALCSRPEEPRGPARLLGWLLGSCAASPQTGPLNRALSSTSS
Test: Radioligand binding assay ([3H]PGD2 competition, membranes from HEK-hCRTH2 cell line)
Settings: 0.7 nM [3H]PGD2, membrane protein from HEK-hCRTH2 cell line, 60 min at room temperature; values given as ranges
Experimental: Radioligand Binding Assay.
Radioligand binding assays were performed at room temperature in 10 mM HEPES/KOH pH 7.4, 1 mM EDTA containing 10 mM MnCl2 and 0.7 nM [^3H]PGD2 (NEN, 171 Ci mmol^−1), in a final volume of 0.2 ml. Competing ligands were diluted in dimethylsulfoxide (Me2SO) that was kept constant at 1% (v/v) of the final incubation volume. The reaction was initiated by the addition of 8-20 μg of membrane protein prepared from a HEK-hCRTH2 cell line. Total and non-specific binding were determined in the absence and the presence of 10 μM PGD2, respectively. Under these conditions, specific binding (total minus non-specific) of the radioligand to the receptor reached equilibrium within 50 min and was stable up to 180 min. The reaction was routinely conducted for 60 min at room temperature and terminated by rapid filtration through prewetted Unifilters GF/C (Packard), using a Tomtec MachIII semi-automated harvester (for HEK-hCRTH2). The filters were then washed with 4 ml of the same buffer and residual radioligand bound to the filter was determined by liquid scintillation counting following equilibration in 25 μl Ultima Gold F™ (Unifilter) (Packard). The Ki (in nM) values for representative compounds of the present invention are as follows: ≦5: Examples 3.1, 5.1, 6.1, 7.1, 8.1/8A, 9.1, 26, 27.1, 28.1, 29.1, 30, 31.1, 31.3, 32.1, 32.4, 33.1, 34.1, 36.1, 38.1, 39, 40, 41; >5 and ≦10: Examples, 4, 5.3, 29.2; >10 and ≦50: Examples 1, 10, 14, 21, 22, 25, 31.4, 32.3, 35, 36.2, 37; >50 and ≦100: Examples 2, 5.4, 6.2, 27.2, 28.2; >100: Examples 3.2, 5.2, 7.2, 8.2, 9.2, 11, 12, 13, 15, 16, 17, 18, 19, 20, 23, 24, 31.2, 32.2, 33.2, 34.2, 38.2.

Ki [µM] | Structure (SMILES)
> 0.1 | O=C(O)Cc1c2n(c3c(F)cccc13)CC(n1nncc1Cc1ccc(F)c(F)c1)CC2 (single isomer, unassigned) [Example 33.2, {7-[5-(3,4-difluorobenzyl)-1H-1,2,3-triazol-1-yl]-4-fluoro-6,7,8,9-tetrahydropyrido[1,2-a]-indol-10-yl}acetic acid]
≤ 0.005 | O=C(O)Cc1c2n(c3c(F)cccc13)CC(n1nncc1Cc1ccc(Cl)cc1)CC2 (single isomer, unassigned) [Example 34.1, {7-[5-(4-chlorobenzyl)-1H-1,2,3-triazol-1-yl]-4-fluoro-6,7,8,9-tetrahydropyrido[1,2-a]indol-10-yl}acetic acid]
> 0.1 | O=C(O)Cc1c2n(c3c(F)cccc13)CC(n1nncc1Cc1ccc(Cl)cc1)CC2 (single isomer, unassigned) [Example 34.2, {7-[5-(4-chlorobenzyl)-1H-1,2,3-triazol-1-yl]-4-fluoro-6,7,8,9-tetrahydropyrido[1,2-a]indol-10-yl}acetic acid]
≤ 0.005 | Cc1nnn(C2CCc3c(CC(=O)O)c4cccc(F)c4n3C2)c1Cc1ccc(F)cc1 (single isomer, unassigned) [Example 36.1, {4-Fluoro-7-[5-(4-fluorobenzyl)-4-methyl-1H-1,2,3-triazol-1-yl]-6,7,8,9-tetrahydropyrido[1,2-a]indol-10-yl}acetic acid]
0.01 to 0.05 | Cc1nnn(C2CCc3c(CC(=O)O)c4cccc(F)c4n3C2)c1Cc1ccc(F)cc1 (single isomer, unassigned) [Example 36.2, {4-Fluoro-7-[5-(4-fluorobenzyl)-4-methyl-1H-1,2,3-triazol-1-yl]-6,7,8,9-tetrahydropyrido[1,2-a]indol-10-yl}acetic acid]
≤ 0.005 | CC1C(n2nncc2Cc2ccc(F)cc2)CCc2c(CC(=O)O)c3cccc(F)c3n21 (single isomer, unassigned) [Example 38.1, {4-Fluoro-7-[5-(4-fluorobenzyl)-1H-1,2,3-triazol-1-yl]-6-methyl-6,7,8,9-tetrahydropyrido[1,2-α]indol-10-yl}acetic acid]
> 0.1 | CC1C(n2nncc2Cc2ccc(F)cc2)CCc2c(CC(=O)O)c3cccc(F)c3n21 (single isomer, unassigned) [Example 38.2, {4-Fluoro-7-[5-(4-fluorobenzyl)-1H-1,2,3-triazol-1-yl]-6-methyl-6,7,8,9-tetrahydropyrido[1,2-α]indol-10-yl}acetic acid]
≤ 0.005 | CC(C)(c1ccc(F)cc1)c1cnnn1C1CCc2c(CC(=O)O)c3cccc(F)c3n2C1 (single isomer, unassigned) [Example 39, (4-Fluoro-7-{5-[1-(4-fluorophenyl)-1-methylethyl]-1H-1,2,3-triazol-1-yl}-6,7,8,9-tetrahydropyrido[1,2-a]indol-10-yl)acetic acid]
≤ 0.005 | O=C(O)Cc1c2n(c3ccccc13)CC(n1nncc1Cc1ccc(F)cc1F)CC2 (single isomer, unassigned) [Example 40, {7-[5-(2,4-difluorobenzyl)-1H-1,2,3-triazol-1-yl]-6,7,8,9-tetrahydropyrido[1,2-a]-indol-10-yl}acetic acid]
≤ 0.005 | O=C(O)Cc1c2n(c3c(F)cccc13)CC(n1nncc1Cc1ccc(F)cc1F)CC2 (single isomer, unassigned) [Example 41, {7-[5-(2,4-difluorobenzyl)-1H-1,2,3-triazol-1-yl]-4-fluoro-6,7,8,9-tetrahydro-pyrido[1,2-a]indol-10-yl}acetic acid]
0.01 to 0.05 | O=C(O)Cc1c2n(c3ccccc13)CC(n1cc(Cc3ccccc3)nn1)CC2 (stereo not drawn) [Example 1, [7-(4-Benzyl-[1,2,3]triazol-1-yl)-6,7,8,9-tetrahydropyrido[1,2-α]indol-10-yl]-acetic acid]
0.05 to 0.1 | COc1ccc(-c2cn(C3CCc4c(CC(=O)O)c5ccccc5n4C3)nn2)cc1 (stereo not drawn) [Example 2, {7-[4-(4-Methoxy-phenyl)-[1,2,3]triazol-1-yl]-6,7,8,9-tetrahydropyrido[1,2-α]indol-10-yl}-acetic acid]

Source: patent publication US9023864B2, “Indole derivatives as CRTH2 receptor antagonists” (Merck Sharp & Dohme Corp., priority 2009, dated 2015)
